Test results as given in US20230099031A1, “BIFUNCTIONAL AGENTS FOR PROTEIN RECRUITMENT AND/OR DEGRADATION” (Orionis Biosciences, Inc., priority 2019, published 2023).

These compounds were tested against T1, CRBN (Homo sapiens, UniProt Q96SW2) (assay: Competition Assay: MAPPIT-like, competition with trimethoprim-lenalidomide hybrid ligand for binding to CRBN in HEK293T cells). Conditions: HEK293T cells, 300 nM trimethoprim-lenalidomide hybrid ligand, luciferase 24 hours after compound treatment; read-out: Competition IC50.
T1 construct: expressed in transfected cells; host or cells: HEK293T
Type: cell-based
Text: A bait protein (protein A) is expressed as a fusion protein in which it is genetically fused to an engineered intracellular receptor domain of the leptin receptor, which is itself fused to the extracellular domain of the erythropoietin (Epo) receptor. Binding of Epo ligand to the EpoR component results in activation of receptor-associated intracellular JAK2. However, activated JAK2 cannot activate the leptin receptor to trigger STAT3 binding and its phosphorylation because its tyrosine residues, normally phosphorylated by activated JAK2, have been mutated. Reconstitution of a JAK2 phosphorylatable STAT3 docking site is instead created through interaction of a protein B with protein A, whereby protein B is fused to a cytoplasmic domain of the gp130 receptor (which now harbors appropriate tyrosine resides recognized by the activated JAK2 kinase). Thus, physical interaction of protein A with protein B reconstitutes and Epo triggers JAK2-STAT3 signaling pathway activation. Activation of STAT3 can be monitored by introduction of a STAT3-responsive reporter gene, including a luciferase-encoding gene or a gene encoding a fluorescent marker such as GFP or some other type of fluorescent protein (EGF etc.). In this manner, the MAPPIT assay provides a versatile assay to assess such recombinant protein-protein interactions, or compound- or hybrid ligand-induced protein-protein interactions, in intact cells.
Formation of the complex results in activation of a STAT-responsive luciferase reporter gene. That signal is set to 100% luciferase activity. In a separate sample set up, cells are prepared in the same manner but, in addition, co-incubated with a test compound whose interaction with CRBN is investigated. […] Increasing concentrations of test compound are assessed to determine CRBN binding efficiency as determined in this type of ligand competition experiment in living cells. Specificity of signal inhibition is assessed by a parallel experimental set up in which test compound effect is assessed for inhibition of signal generated by a control gp130 fusion protein (CTRL) that directly binds to the DHFR-fusion protein in the absence of hybrid ligand (i.e. a direct interaction of the proteins).
In more detail, HEK293T cells are cultured in Dulbecco's modified Eagle's medium supplemented with 10% fetal calf serum, incubated at 37° C., 8% CO2. […] Data points represent the average luciferase activity of triplicate samples derived from cells treated with leptin+test compound for the REM2 control (CTRL) or cells treated with leptin+hybrid ligand+test compound (CRBN) relative to leptin (CTRL) or leptin+hybrid ligand (CRBN) only treated samples (the signals obtained in absence of added test compound for both cases is set at 100% of luciferase activity on y-axis). Error bars represent standard deviations. Curves are fit using 4-parameter nonlinear regression in […] PRISM software

IC50 | Compound
0.068 µM | Cc1sc2c(c1C)C(c1ccc(Cl)cc1)=N[C@@H](CC(=O)NCCOCCOCCNC(=O)COc1cccc3c1CN(C1CCC(=O)NC1=O)C3=O)c1nnc(C)n1-2 (stereo partly drawn) [Compound 5.59]
0.873 µM | C#CCOCCOCCOCCNC(=O)COc1ccc2nc(C(=O)Nc3ccc4c(c3)C(=O)N(C3CCC(=O)NC3=O)C4)ccc2c1 (stereo not drawn) [Compound 5.03]
0.376 µM | CC(C)(C)OC(=O)NCCOCCOCCOCCn1cc(CNc2nc(Nc3ccc4c(c3)CN(C3CCC(=O)NC3=O)C4=O)c3ccsc3n2)nn1 (stereo not drawn) [Compound 5.02]
5.8 µM | CC/C(=C(\c1ccccc1)c1ccc(OCCN(C)CC(=O)NCCNC(=O)COc2cccc3c2CN(C2CCC(=O)NC2=O)C3=O)cc1)c1ccccc1 (stereo not drawn) [Compound 5.56]
5.25 µM | C#CCOCCOCCOCCNC(=O)c1ccc(CNC(=O)CNc2ccc3c(c2)C(=O)N(C2CCC(=O)NC2=O)C3)cc1 (stereo not drawn) [Compound 5.08]

Same assay, conditions: protocol and reagents of Example 1; read-out: IC50 Competition

Compound | IC50
Nc1nc(Nc2ccc3c(c2)CN(C2CCC(=O)NC2=O)C3=O)nc2sccc12 (stereo not drawn) [Compound C80379, 3-[5-[(4-aminothieno[2,3-d]pyrimidin-2-yl)amino]-1-oxo-isoindolin-2-yl]piperidine-2,6-dione] | 0.971 µM
O=C1CC=CC(C(=O)NC2CCC(=O)NC2=O)=N1 (stereo not drawn) [Compound C98696, N-(2,6-dioxo-3-piperidyl)-2-oxo-3H-pyridine-6-carboxamide] | 9.34 µM
C=CCC1c2ccccc2C(=O)N1C1CCC(=O)NC1=O (stereo not drawn) [Compound C96413, 3-(1-allyl-3-oxo-isoindolin-2-yl)piperidine-2,6-dione] | 10.4 µM
O=C1CCC(N2Cc3cc(Nc4ncnc5sccc45)ccc3C2=O)C(=O)N1 (stereo not drawn) [Compound C80370, 3-[1-oxo-5-(thieno[2,3-d]pyrimidin-4-ylamino)isoindolin-2-yl]piperidine-2,6-dione] | 0.0109 µM
Nc1nccc(Nc2ccc3c(c2)CN(C2CCC(=O)NC2=O)C3=O)n1 (stereo not drawn) [Compound C80375, 3-[5-[(2-aminopyrimidin-4-yl)amino]-1-oxo-isoindolin-2-yl]piperidine-2,6-dione] | 2.06 µM
O=C1CCC(CN2C(=O)c3ccccc3C2=O)C(=O)N1 (stereo not drawn) [Compound C23258, 2-[(2,6-dioxo-3-piperidyl)methyl]isoindoline-1,3-dione] | 14500 µM
O=C1CC/C(=C/c2ccccc2)C(=O)N1 [Compound C68121, (3Z)-3-benzylidenepiperidine-2,6-dione] | 6.5 µM
Nc1cccc2c(=O)n(C3CCC(=O)NC3=O)nnc12 (stereo not drawn) [Compound C35833, 3-(8-amino-4-oxo-1,2,3-benzotriazin-3-yl)piperidine-2,6-dione] | 0.684 µM
O=C1CCC(N2C(=O)CC3(CCOCC3)C2=O)C(=O)N1 (stereo not drawn) [Compound C64348, 2-(2,6-dioxo-3-piperidyl)-8-oxa-2-azaspiro[4.5]decane-1,3-dione] | 12.9 µM
Cn1ncc2c(Nc3ccc4c(c3)CN(C3CCC(=O)NC3=O)C4=O)ncnc21 (stereo not drawn) [Compound C80374, 3-[5-[(1-methylpyrazolo[3,4-d]pyrimidin-4-yl)amino]-1-oxo-isoindolin-2-yl]piperidine-2,6-dione] | 16.6 µM
N#Cc1cccc2c1C(=O)N(C1CCC(=O)NC1=O)C2 (stereo not drawn) [Compound C48009, 2-(2,6-dioxo-3-piperidyl)-3-oxo-isoindoline-4-carbonitrile] | 2.18 µM
COc1cccc2c1C(=O)N(C1CCC(=O)NC1=O)C2 (stereo not drawn) [Compound C29137, 3-(7-methoxy-1-oxo-isoindolin-2-yl)piperidine-2,6-dione] | 0.304 µM
O=C1CCC(Nc2cnc3ccccc3n2)C(=O)N1 (stereo not drawn) [Compound C44292, 3-(quinoxalin-2-ylamino)piperidine-2,6-dione] | 8.32 µM
Cc1nc(N(C)C)cc2c1C(=O)N(C1CCC(=O)NC1=O)C2=O (stereo not drawn) [Compound C64376, 6-(dimethylamino)-2-(2,6-dioxo-3-piperidyl)-4-methyl-pyrrolo[3,4-c]pyridine-1,3-dione] | 3.95 µM
O=C1Cc2ccccc2C(=O)N1 [Compound C15352, 4H-isoquinoline-1,3-dione] | 10.3 µM
O=C1CCC(Nc2ncc3ccccc3n2)C(=O)N1 (stereo not drawn) [Compound C97402, 3-(quinazolin-2-ylamino)piperidine-2,6-dione] | 6.32 µM
O=C1N=CC(N2C(=O)c3ccccc3C2=O)C(=O)N1 (stereo not drawn) [Compound C49278, 2-(2,6-dioxo-5H-pyrimidin-5-yl)isoindoline-1,3-dione] | 45.4 µM

Second part, the compound after the results:

IC50 | Compound
58 µM | CC1CC(NC(=O)CNc2ccc3c(c2)C(=O)N(C2CCC(=O)NC2=O)C3)CCO1 (stereo not drawn) [Compound C12695, 2-[[2-(2,6-dioxo-3-piperidyl)-3-oxo-isoindolin-5-yl]amino]-N-(2-methyltetrahydropyran-4-yl)acetamide]
0.03 µM | O=C1CCC(N2Cc3ccc(NCC(=O)N4Cc5ccccc5C4)cc3C2=O)C(=O)N1 (stereo not drawn) [Compound C95330, 3-[6-[(2-isoindolin-2-yl-2-oxo-ethyl)amino]-1-oxo-isoindolin-2-yl]piperidine-2,6-dione]
0.0542 µM | Cn1ccnc(Nc2ccc3c(c2)C(=O)N(C2CCC(=O)NC2=O)C3)c1=O (stereo not drawn) [Compound C80387, 3-[6-[(4-methyl-3-oxo-pyrazin-2-yl)amino]-1-oxo-isoindolin-2-yl]piperidine-2,6-dione]
4.92 µM | CC(=O)Nc1ccc2c(c1)C(=O)N(C1CCC(=O)NC1=O)C2 (stereo not drawn) [Compound C29408, N-[2-(2,6-dioxo-3-piperidyl)-3-oxo-isoindolin-5-yl]acetamide]
1.31 µM | O=C1CCC(N2Cc3ccc(N4CCNC4=O)cc3C2=O)C(=O)N1 (stereo not drawn) [Compound C84971, 3-[1-oxo-6-(2-oxoimidazolidin-1-yl)isoindolin-2-yl]piperidine-2,6-dione]
0.729 µM | Cc1cc2[nH]cnc(Nc3ccc4c(c3)C(=O)N(C3CCC(=O)NC3=O)C4)c-2n1 (stereo not drawn) [Compound C80390, 3-[6-[(6-methylpyrrolo[3,2-d]pyrimidin-4-yl)amino]-1-oxo-isoindolin-2-yl]piperidine-2,6-dione]
2.05e-05 µM | O=C1CCC(N2Cc3ccc(NC(=O)c4ccc5ccccc5n4)cc3C2=O)C(=O)N1 (stereo not drawn) [Compound C80392, N-[2-(2,6-dioxo-3-piperidyl)-3-oxo-isoindolin-5-yl]quinoline-2-carboxamide]
0.214 µM | CN(C)c1ccc2c(c1)C(=O)N(C1CCC(=O)NC1=O)C2 (stereo not drawn) [Compound C96622, 3-[6-(dimethylamino)-1-oxo-isoindolin-2-yl]piperidine-2,6-dione]
0.645 µM | N#Cc1ccc(Nc2ccc3c(c2)C(=O)N(C2CCC(=O)NC2=O)C3)nn1 (stereo not drawn) [Compound C80389, 6-[[2-(2,6-dioxo-3-piperidyl)-3-oxo-isoindolin-5-yl]amino]pyridazine-3-carbonitrile]
7.91e-05 µM | CC1CCCCN1C(=O)CNc1ccc2c(c1)C(=O)N(C1CCC(=O)NC1=O)C2 (stereo not drawn) [Compound C12584, 3-[6-[[2-(2-methyl-1-piperidyl)-2-oxo-ethyl]amino]-1-oxo-isoindolin-2-yl]piperidine-2,6-dione]
0.179 µM | Cc1cc(Nc2ccc3c(c2)C(=O)N(C2CCC(=O)NC2=O)C3)ncn1 (stereo not drawn) [Compound C80384, 3-[6-[(6-methylpyrimidin-4-yl)amino]-1-oxo-isoindolin-2-yl]piperidine-2,6-dione]
11.9 µM | CC1Cc2ccccc2N1C(=O)CNc1ccc2c(c1)C(=O)N(C1CCC(=O)NC1=O)C2 (stereo not drawn) [Compound C95336, 3-[6-[[2-(2-methylindolin-1-yl)-2-oxo-ethyl]amino]-1-oxo-isoindolin-2-yl]piperidine-2,6-dione]
10.3 µM | O=C1CCC(N2Cc3ccc(NCC(=O)N4CC5CC4CO5)cc3C2=O)C(=O)N1 (stereo not drawn) [Compound C12589]
37400 µM | CC1CCN(C(=O)CNc2ccc3c(c2)C(=O)N(C2CCC(=O)NC2=O)C3)CC1 (stereo not drawn) [Compound C12582, 3-[6-[[2-(4-methyl-1-piperidyl)-2-oxo-ethyl]amino]-1-oxo-isoindolin-2-yl]piperidine-2,6-dione]
0.266 µM | CN(C)C(=O)CNc1ccc2c(c1)C(=O)N(C1CCC(=O)NC1=O)C2 (stereo not drawn) [Compound C84964, 2-[[2-(2,6-dioxo-3-piperidyl)-3-oxo-isoindolin-5-yl]amino]-N,N-dimethyl-acetamide]
10.3 µM | O=C1CCC(N2Cc3ccc(NCC(=O)N4CCc5ccccc5C4)cc3C2=O)C(=O)N1 (stereo not drawn) [Compound C95329]
0.752 µM | CN(C)CC(=O)Nc1ccc2c(c1)C(=O)N(C1CCC(=O)NC1=O)C2 (stereo not drawn) [Compound C49708, 2-(dimethylamino)-N-[2-(2,6-dioxo-3-piperidyl)-3-oxo-isoindolin-5-yl]acetamide]
